This note sets out measurements from patent US9062028B2, “Bicyclic nitrogen containing heteroaryl TGR5 receptor modulators” (Bristol-Myers Squibb Company, priority 2011, dated 2015).

The target in this assay is T1, recombinant human TGR5 (Homo sapiens, UniProt Q8TDU6).
T1 construct: expressed in transfected cells
T1 sequence (Q8TDU6 1-330): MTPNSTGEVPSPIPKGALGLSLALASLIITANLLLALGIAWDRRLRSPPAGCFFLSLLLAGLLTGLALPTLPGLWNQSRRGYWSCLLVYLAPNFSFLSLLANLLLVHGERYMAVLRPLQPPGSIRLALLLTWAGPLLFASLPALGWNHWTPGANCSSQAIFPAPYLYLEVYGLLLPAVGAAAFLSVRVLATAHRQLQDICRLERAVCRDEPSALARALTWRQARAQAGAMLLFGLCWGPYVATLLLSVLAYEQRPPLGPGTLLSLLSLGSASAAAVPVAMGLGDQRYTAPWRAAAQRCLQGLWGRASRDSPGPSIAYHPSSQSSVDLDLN
Briefly: cAMP assay (cAMP accumulation, HTRF) in CHOK1 cells stably expressing TGR5. Type of assay: cell-based. Particulars: CHOK1 cells stably expressing human TGR5, 30 minutes at RT, 1% DMSO. The method in brief: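 CHOK1 cells stably expressing TGR5 (text also calls it chimeric human/mouse), 0.4-0.5×10^6 cells/mL in PBS with Ca/Mg and 0.1 mM IBMX, compound 30 min at RT, 1% DMSO. cAMP by HTRF 665/620 interpolated to a standard curve; EC50 from 4-parameter fit as half-maximal increase.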
In the case of `Cc1cccc(OCCCC(=O)N2CCCc3c(-c4cnn(Cc5cccc(C(=O)N6CCC(C(=O)O)C6)c5)c4)cccc32)c1C` (stereo not drawn) [Example 859, 1-(3-((4-(1-(4-(2,3-Dimethylphenoxy)butanoyl)-1,2,3,4-tetrahydroquinolin-5-yl)-1H-pyrazol-1-yl)methyl)benzoyl)pyrrolidine-3-carboxylic acid], the EC50 turned out to be 1360 nM. In the case of `Cc1cccc(OCCCC(=O)N2CCCc3c(-c4cnn(Cc5cccc(C(=O)N[C@@H](C)C(=O)O)c5)c4)cccc32)c1C` [Example 864, (S)-2-(3-((4-(1-(4-(2,3-Dimethylphenoxy)butanoyl)-1,2,3,4-tetrahydroquinolin-5-yl)-1H-pyrazol-1-yl)methyl)benzamido)propanoic acid], the EC50 turned out to be 193 nM. In the case of `Cc1cccc(OCCCC(=O)N2C[C@@H]3C[C@@H]3c3c(-c4cnn(Cc5cccc(C(=O)NCC(=O)O)c5)c4)cccc32)c1C` [Example 878, 2-(3-((4-((1aR,7bS)-3-(4-(2,3-Dimethylphenoxy)butanoyl)-1a,2,3,7b-tetrahydro-1H-cyclopropa[c]quinolin-7-yl)-1H-pyrazol-1-yl)methyl)benzamido)acetic acid] it was 42 nM; in that of `Cc1cccc(OCCCC(=O)N2C[C@@H]3C[C@@H]3c3c(-c4cnn(Cc5cccc(C(=O)N(CC(=O)O)CC(=O)O)c5)c4)cccc32)c1C` [Example 882, 2,2′-(3-((4-((1aR,7bS)-3-(4-(2,3-Dimethylphenoxy)butanoyl)-1a,2,3,7b-tetrahydro-1H-cyclopropa[c]quinolin-7-yl)-1H-pyrazol-1-yl)methyl)benzoylazanediyl) diacetic acid], 1340 nM; in that of `Cc1cccc(OCCCC(=O)N2C[C@@H]3C[C@@H]3c3c(-c4cnn(Cc5cccc(C(=O)NC[C@@H](N)C(=O)O)c5)c4)cccc32)c1C` [Example 887, (R)-2-Amino-3-(3-((4-((1aR,7bS )-3-(4-(2,3-dimethylphenoxy)butanoyl)-1a,2,3,7b-tetrahydro-1H-cyclopropa[c]quinolin-7-yl)-1H-pyrazol-1-yl)methyl)benzamido)propanoic acid], 184 nM. Turning to `Cc1cccc(OCCCC(=O)N2C[C@@H]3C[C@@H]3c3c(-c4cnn(Cc5cccc(C(=O)N[C@H]6CCOC6=O)c5)c4)cccc32)c1C` [Example 891, 3-((4-((1aR,7bS)-3-(4-(2,3-Dimethylphenoxy)butanoyl)-1a,2,3,7b-tetrahydro-1H-cyclopropa[c]quinolin-7-yl)-1H-pyrazol-1-yl)methyl)-N-((S)-2-oxotetrahydrofuran-3-yl)benzamide], the EC50 amounted to 26 nM. As for `CCOC(=O)CN(CC(=O)OCC)C(=O)c1cccc(Cn2cc(-c3cccc4c3[C@H]3C[C@H]3CN4C(=O)CCCOc3cccc(Cl)c3C)cn2)c1` [Example 896, Diethyl 2,2′-(3-((4-((1aR,7bS)-3-(4-(3-chloro-2-methylphenoxy)butanoyl)-1a,2,3,7b-tetrahydro-1H-cyclopropa[c]quinolin-7-yl)-1H-pyrazol-1-yl)methyl)benzoylazanediyl)diacetate], the EC50 was determined as 198 nM. For the compound `CCOC(=O)CNC(=O)Nc1cccc(Cn2cc(-c3cccc4c3[C@H]3C[C@H]3CN4C(=O)CCCOc3cccc(Cl)c3C)cn2)c1` [Example 914, Ethyl 2-(3-(3-((4-((1aR,7bS)-3-(4-(3-chloro-2-methylphenoxy)butanoyl)-1a,2,3,7b-tetrahydro-1H-cyclopropa[c]quinolin-7-yl)-1H-pyrazol-1-yl)methyl)phenyl)ureido)acetate], the EC50 turned out to be 32 nM. In the case of `Cc1c(Cl)cccc1OCCCC(=O)N1C[C@@H]2C[C@@H]2c2c(-c3cnn(Cc4cccc(NC(=O)NCC(=O)O)c4)c3)cccc21` [Example 916, 2-(3-(3-((4-((1aR,7bS)-3-(4-(3-Chloro-2-methylphenoxy)butanoyl)-1a,2,3,7b-tetrahydro-1H-cyclopropa[c]quinolin-7-yl)-1H-pyrazol-1-yl)methyl)phenyl)ureido) acetic acid], the EC50 was 37 nM.
